Reference: ChEMBL document CHEMBL1144935, “Synthesis, biological evaluation, and receptor docking simulations of 2-[(acylamino)ethyl]-1,4-benzodiazepines as kappa-opioid receptor agonists endowed with antinociceptive and antiamnesic activity” (J Med Chem, 2003)

How the values were obtained:
Mu-type opioid receptor [1] = molecular target: Mu-type opioid receptor (Homo sapiens, UniProt P35372); test: Binding affinity determined against Opioid receptor mu 1 from human cloned receptor
[2] = molecular target: T1, Kappa-type opioid receptor (Homo sapiens, UniProt P41145); test: Binding affinity against opioid receptor kappa 1 from human cloned receptor
[3] = molecular target: T1, Kappa-type opioid receptor; test: Binding constant towards human Opioid receptor kappa 1 was reported
[4] = molecular target: Kappa-type opioid receptor (Cavia porcellus, UniProt P41144); test: Binding affinity determined against Opioid receptor kappa 1 from a native receptor in guinea pig
[5] = molecular target: Delta-type opioid receptor (Homo sapiens, UniProt P41143)
Description: Binding affinity determined against Opioid receptor delta 1 from human cloned receptor

Mu-type opioid receptor [6] = molecular target: Mu-type opioid receptor (Cavia porcellus, UniProt P97266); test: Binding affinity of compound was determined against Opioid receptor mu 1 from native receptor in guinea pig
Chain of Mu-type opioid receptor (Cavia porcellus, UniProt P97266) (P97266 whole entry): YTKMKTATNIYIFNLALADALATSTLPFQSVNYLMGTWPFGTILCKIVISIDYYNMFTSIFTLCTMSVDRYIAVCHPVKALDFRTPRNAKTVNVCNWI

Chain of Delta-type opioid receptor (P41143 whole entry): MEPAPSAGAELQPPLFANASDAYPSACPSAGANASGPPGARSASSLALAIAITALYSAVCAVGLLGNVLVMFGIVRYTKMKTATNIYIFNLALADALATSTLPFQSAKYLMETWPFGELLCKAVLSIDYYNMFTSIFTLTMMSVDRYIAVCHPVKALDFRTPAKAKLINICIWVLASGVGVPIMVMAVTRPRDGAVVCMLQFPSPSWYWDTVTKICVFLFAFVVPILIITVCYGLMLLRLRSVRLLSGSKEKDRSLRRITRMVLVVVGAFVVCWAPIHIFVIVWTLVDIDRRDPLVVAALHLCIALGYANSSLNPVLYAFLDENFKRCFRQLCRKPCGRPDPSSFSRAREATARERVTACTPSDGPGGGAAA
Chain of Mu-type opioid receptor (Homo sapiens, UniProt P35372) (P35372 whole entry): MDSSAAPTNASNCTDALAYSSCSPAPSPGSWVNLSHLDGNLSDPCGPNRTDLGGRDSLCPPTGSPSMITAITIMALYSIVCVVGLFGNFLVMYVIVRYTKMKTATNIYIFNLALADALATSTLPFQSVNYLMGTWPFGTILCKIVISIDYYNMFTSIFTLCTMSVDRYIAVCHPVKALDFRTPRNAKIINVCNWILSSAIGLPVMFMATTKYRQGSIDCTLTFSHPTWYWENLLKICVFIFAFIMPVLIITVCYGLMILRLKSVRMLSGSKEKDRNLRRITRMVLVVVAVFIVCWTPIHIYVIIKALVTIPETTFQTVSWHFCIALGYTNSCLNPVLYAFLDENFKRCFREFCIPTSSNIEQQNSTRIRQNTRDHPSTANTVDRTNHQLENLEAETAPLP
T1 sequence (P41145 whole entry): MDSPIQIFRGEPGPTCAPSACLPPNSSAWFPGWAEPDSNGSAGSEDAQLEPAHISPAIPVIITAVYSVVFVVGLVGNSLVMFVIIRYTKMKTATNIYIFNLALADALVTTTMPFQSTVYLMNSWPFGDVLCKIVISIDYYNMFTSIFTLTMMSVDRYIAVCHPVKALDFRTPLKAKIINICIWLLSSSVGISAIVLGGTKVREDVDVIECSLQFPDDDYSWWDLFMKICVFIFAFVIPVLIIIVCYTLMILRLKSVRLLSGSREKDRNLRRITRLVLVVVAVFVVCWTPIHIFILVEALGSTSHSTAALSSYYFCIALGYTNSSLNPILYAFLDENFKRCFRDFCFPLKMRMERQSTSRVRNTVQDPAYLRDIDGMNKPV
Chain of Kappa-type opioid receptor (Cavia porcellus, UniProt P41144) (P41144 whole entry): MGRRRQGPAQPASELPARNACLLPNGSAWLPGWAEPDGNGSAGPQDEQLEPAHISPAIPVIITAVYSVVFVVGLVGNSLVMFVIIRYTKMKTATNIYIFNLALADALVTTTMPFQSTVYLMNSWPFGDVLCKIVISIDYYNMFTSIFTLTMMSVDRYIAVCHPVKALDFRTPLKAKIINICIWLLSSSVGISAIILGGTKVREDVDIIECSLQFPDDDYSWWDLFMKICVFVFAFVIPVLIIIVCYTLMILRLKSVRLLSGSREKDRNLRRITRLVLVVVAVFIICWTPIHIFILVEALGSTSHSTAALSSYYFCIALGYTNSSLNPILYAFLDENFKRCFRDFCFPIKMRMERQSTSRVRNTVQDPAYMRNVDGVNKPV

| Structure (SMILES) | Ki (Mu-type opioid receptor [1]) [nM] | Ki [2] [nM] | Ki [3] [nM] | Ki [4] [nM] | Ki [5] [nM] | Ki (Mu-type opioid receptor [6]) [nM] |
| --- | --- | --- | --- | --- | --- | --- |
| CN1c2ccc(Cl)cc2C(c2ccccc2)=NCC1CCNC(=O)c1cccs1 (configuration not stated) | 26.3 | 0.7 |  |  |  |  |
| CN1c2ccccc2C(c2ccccc2)=NC[C@@H]1CCNC(=O)c1cccs1 | 9.2 | 0.43 | 0.427 |  |  |  |
| CN(CCC1CN=C(c2ccccc2)c2ccccc2N1C)C(=O)c1cccs1 (configuration not stated) |  | 4.34 | 4.37 | 25.7 |  |  |
| COc1cccc2c1C(c1ccccc1)=NCC(CCNC(=O)c1cccs1)N2C (configuration not stated) |  | 3.77 | 3.8 | 116 |  |  |
| CN1c2ccccc2C(c2ccccc2)=NC[C@H]1CCNC(=O)c1cccs1 | 54.8 | 1.28 |  |  |  |  |
| CN1c2ccc(Cl)cc2C(c2ccccc2)=NCC1CCNC(=O)c1ccc(Cl)cc1 (configuration not stated) |  | 1.31 | 1.32 |  |  |  |
| CN1c2ccc(Cl)cc2C(c2ccccc2)=NC[C@@H]1CCNC(=O)c1cccs1 | 27.4 | 0.69 | 0.692 |  |  |  |
| O=C(NCCC1CN=C(c2ccccc2)c2ccccc2N1)c1ccccc1 (configuration not stated) |  | 0.25 | 0.251 |  |  |  |
| CN1c2ccccc2C(c2ccccc2F)=NC[C@H]1CCNC(=O)c1ccsc1 | 24.8 | 0.71 |  |  | 438 |  |
| CN1c2ccccc2C(c2ccccc2F)=NC[C@@H]1CCNC(=O)c1ccsc1 | 1.5 | 0.17 | 0.17 |  | 27.8 |  |
| Oc1ccc2c3c1O[C@H]1c4[nH]c5ccccc5c4C[C@@]4(O)[C@@H](C2)N(CC2CC2)CC[C@]314 [NALTRINDOLE] |  |  |  | 10.2 |  | 14.7 |
| CN1c2ccccc2C(c2ccccc2)=NCC1CCNC(=O)c1cccs1 (configuration not stated) | 9.4 | 0.58 |  |  |  |  |
| CN1c2ccc(Cl)cc2C(c2ccccc2)=NC[C@H]1CCNC(=O)c1cccs1 | 33.2 | 0.79 |  |  |  |  |
| CN1c2ccccc2C(c2ccccc2)=NCC1CCNC(=O)c1ccc(F)cc1 (configuration not stated) |  | 0.3 | 0.302 |  |  |  |
| O=C(NCCC1CN=C(c2ccccc2)c2ccccc2N1)c1ccccc1F (configuration not stated) |  | 0.53 | 0.537 |  |  |  |
| O=C(NCCC1CN=C(c2ccccc2)c2ccccc2N1)c1cccs1 (configuration not stated) |  | 0.45 | 0.447 | 1.74 |  |  |
| CN1c2ccc(Cl)cc2C(c2ccccc2)=NCC1CCNC(=O)c1ccc(F)cc1 (configuration not stated) |  | 0.55 | 0.55 |  |  |  |
| CN1c2ccc(Cl)cc2C(c2ccccc2)=NCC1CCNC(=O)c1cc2ccccc2[nH]1 (configuration not stated) |  | 13.6 | 13.5 |  |  |  |
| CN1c2ccccc2C(c2ccccc2)=NCC1CCNC(=O)c1ccc([N+](=O)[O-])cc1 (configuration not stated) |  | 0.47 | 0.479 |  |  |  |
| CN1c2ccccc2C(c2ccccc2F)=NCC1CCNC(=O)c1ccsc1 (configuration not stated) | 3 | 0.37 |  | 0.78 | 69 | 1.93 |
| CN1c2ccc(Cl)cc2C(c2ccccc2)=NCC1CCNC(=O)c1ccccc1F (configuration not stated) |  | 1.52 | 1.55 |  |  |  |
| O=C(NCCC1CN=C(c2ccccc2)c2ccccc2N1)c1ccc(F)cc1 (configuration not stated) |  | 0.28 | 0.282 |  |  |  |
| CN1c2ccccc2C(c2ccccc2)=NCC1CCNC(=O)c1ccccc1F (configuration not stated) |  | 0.36 | 0.363 |  |  |  |
